In ChEMBL document CHEMBL1201862, “PubChem BioAssay data set” (2004):
The source made the active and inactive calls.

Legend:
[1] = blockers of bursicon-stimulated LGR2 cAMP reporter – cell-based, HEK293, CRE-luciferase reporter, cherry pick, set 2, dose response (AID 743343); assay type: functional;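 also: transfected cells were stimulated with diluted bursicon conditioned medium after compound addition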
[2] = target: Nucleotide-binding oligomerization domain-containing protein 2 (Homo sapiens, UniProt Q9HC29); experiment: PubChem AID 2334; assay type: functional
[3] = A549 cell cytotoxicity, dose response, cytotoxicity control, plate reader, cherry-pick, antagonist series (AID 743412); assay type: functional, cell-based
[4] = blockade of melanocortin 4 receptor signaling – cell-based, plate reader, cherry pick, counter-screen for LGR2 antagonist project, dose response (AID 743444); assay type: functional;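 also: transfected HEK 293 cells stimulated with alpha-MSH peptide; potency of inhibitors of the alpha-MSH evoked signal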
HEK293 [5] = experiment: cells; conditions: Homo sapiens
Tumor necrosis factor = Tumor necrosis factor (Homo sapiens, UniProt P01375); experiment: analog potency on TNFa NF-kB signaling – cell-based, revised, SAR follow-up (AID 2337); assay type: functional
Chain of Tumor necrosis factor (P01375 whole entry): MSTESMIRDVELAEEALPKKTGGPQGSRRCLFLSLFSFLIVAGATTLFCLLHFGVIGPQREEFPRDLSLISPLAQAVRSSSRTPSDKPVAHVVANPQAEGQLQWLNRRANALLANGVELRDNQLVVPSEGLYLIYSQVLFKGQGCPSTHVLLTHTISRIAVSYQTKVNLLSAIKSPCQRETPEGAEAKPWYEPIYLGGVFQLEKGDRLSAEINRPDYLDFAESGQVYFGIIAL

HEK293 [6] = experiment: cells; assay type: functional, cell-based; conditions: Homo sapiens
HEK293 [7] = experiment: cells; assay type: functional, cell-based; conditions: Homo sapiens; remark: listed apart in the source
[8] = viability loss of HPDE-C7K cells – cell-based, fluorescence, HTS, primary screen (AID 431); assay type: functional; conditions: Homo sapiens
HEK293 [9] = experiment: inhibition of NOD1-driven NF-kB reporter – cell-based, luminescence, uHTS, primary screen (AID 1578); assay type: functional; conditions: Homo sapiens
HEK293 [10] = experiment: NOD2 signaling inhibitors in MDP-stimulated cells, cell-based, uHTS, luminescence (AID 2001); assay type: functional; conditions: Homo sapiens
[11] = viability of PTEN-deleted HCT116 cells – cell-based, HCT116 PTEN knockout, dose response (AID 1047); assay type: functional;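 also: HCT116 colon tumor cells with PTEN knocked out; cells exposed to compound for 60 hours before readout; potency for loss of cell viability measured by luminescence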
[12] = HPDE-C7 pancreatic duct cell viability loss – fluorescence, HTS (AID 430); assay type: functional, cell-based; conditions: Homo sapiens
[13] = viability of HCT116 lacking mutant beta-catenin – cell-based, human colon tumor, dose response (AID 1045); assay type: functional;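 also: HCT116 colon tumor cells with beta catenin knocked out; cells exposed to compound for 60 hours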
[14] = target: T1, Nucleotide-binding oligomerization domain-containing protein 1 (Homo sapiens, UniProt Q9Y239); experiment: blockers of NOD1 pathway activity – revised, SAR follow-up (AID 2333); assay type: functional
T1 sequence (Q9Y239 whole entry): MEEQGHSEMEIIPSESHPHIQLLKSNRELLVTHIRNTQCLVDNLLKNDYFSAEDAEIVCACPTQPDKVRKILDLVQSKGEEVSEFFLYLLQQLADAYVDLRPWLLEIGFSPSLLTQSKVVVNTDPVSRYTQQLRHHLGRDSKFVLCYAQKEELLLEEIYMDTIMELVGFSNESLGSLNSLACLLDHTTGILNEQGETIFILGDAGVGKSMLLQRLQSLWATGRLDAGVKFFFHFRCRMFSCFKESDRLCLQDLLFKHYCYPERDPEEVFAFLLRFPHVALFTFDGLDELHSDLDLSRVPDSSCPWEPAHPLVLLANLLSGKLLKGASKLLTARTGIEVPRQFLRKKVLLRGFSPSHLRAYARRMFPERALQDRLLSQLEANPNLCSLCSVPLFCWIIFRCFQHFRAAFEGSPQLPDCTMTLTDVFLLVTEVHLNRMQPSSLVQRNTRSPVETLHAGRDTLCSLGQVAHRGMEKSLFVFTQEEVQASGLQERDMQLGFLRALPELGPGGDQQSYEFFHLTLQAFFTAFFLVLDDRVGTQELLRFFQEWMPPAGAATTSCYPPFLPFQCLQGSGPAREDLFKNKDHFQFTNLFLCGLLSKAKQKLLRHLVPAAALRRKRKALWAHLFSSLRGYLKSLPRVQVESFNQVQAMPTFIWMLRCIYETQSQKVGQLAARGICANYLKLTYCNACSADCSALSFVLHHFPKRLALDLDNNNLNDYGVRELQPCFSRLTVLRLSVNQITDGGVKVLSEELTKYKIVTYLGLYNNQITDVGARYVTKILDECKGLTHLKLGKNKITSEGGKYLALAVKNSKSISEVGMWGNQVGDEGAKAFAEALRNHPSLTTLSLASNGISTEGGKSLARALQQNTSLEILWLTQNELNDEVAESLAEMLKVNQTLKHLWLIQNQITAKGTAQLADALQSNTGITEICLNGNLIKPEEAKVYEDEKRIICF

[15] = target: T2, Eukaryotic translation initiation factor 2-alpha kinase 3 (Homo sapiens, UniProt Q9NZJ5); experiment: Counterscreen assay for PERK inhibitors: Dose response cell-based high throughput screening assay to measure inhibition of PERK at 6 hours. [Related pubchem assays: 1522, 1416 ]; assay type: functional
T2 sequence (Q9NZJ5 whole entry): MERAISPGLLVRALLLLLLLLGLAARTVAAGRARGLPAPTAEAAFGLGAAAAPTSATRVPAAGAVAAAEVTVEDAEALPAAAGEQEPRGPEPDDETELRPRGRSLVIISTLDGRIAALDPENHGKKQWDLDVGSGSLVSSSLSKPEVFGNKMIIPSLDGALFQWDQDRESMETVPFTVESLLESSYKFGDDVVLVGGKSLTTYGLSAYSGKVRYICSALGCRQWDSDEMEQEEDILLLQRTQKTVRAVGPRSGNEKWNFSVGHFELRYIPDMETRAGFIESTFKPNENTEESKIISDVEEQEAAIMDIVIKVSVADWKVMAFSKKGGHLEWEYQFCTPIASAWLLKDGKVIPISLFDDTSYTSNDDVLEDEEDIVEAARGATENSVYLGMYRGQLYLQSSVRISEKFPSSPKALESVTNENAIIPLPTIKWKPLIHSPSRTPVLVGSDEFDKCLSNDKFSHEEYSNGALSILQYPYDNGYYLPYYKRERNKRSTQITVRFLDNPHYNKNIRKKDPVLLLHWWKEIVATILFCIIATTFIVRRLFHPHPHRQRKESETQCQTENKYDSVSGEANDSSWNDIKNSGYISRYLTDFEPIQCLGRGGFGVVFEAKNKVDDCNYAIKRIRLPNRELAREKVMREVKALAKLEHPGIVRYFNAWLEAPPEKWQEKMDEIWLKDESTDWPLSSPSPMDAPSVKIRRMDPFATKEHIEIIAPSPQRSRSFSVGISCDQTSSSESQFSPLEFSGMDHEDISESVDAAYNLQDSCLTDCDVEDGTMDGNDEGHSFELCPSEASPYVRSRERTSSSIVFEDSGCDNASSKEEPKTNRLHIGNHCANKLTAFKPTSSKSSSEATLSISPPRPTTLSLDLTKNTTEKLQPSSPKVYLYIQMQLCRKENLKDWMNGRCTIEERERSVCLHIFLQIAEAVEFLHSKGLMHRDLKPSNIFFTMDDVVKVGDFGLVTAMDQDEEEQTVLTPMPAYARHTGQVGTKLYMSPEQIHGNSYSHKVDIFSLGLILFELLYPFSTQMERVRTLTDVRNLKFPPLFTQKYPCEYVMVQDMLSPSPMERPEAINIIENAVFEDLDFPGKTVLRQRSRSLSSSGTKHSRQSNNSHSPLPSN

[16] = target: T2, Eukaryotic translation initiation factor 2-alpha kinase 3; experiment: Dose response cell-based high-throughput screening assay to measure PERK inhibition. [Related pubchem assays: 1416 ]; assay type: functional
[17] = target: C-C chemokine receptor type 6 (Homo sapiens, UniProt P51684); experiment: antagonism of CCR6 beta-arrestin recruitment – cell-based, luminescent beta-arrestin readout, dose response (AID 504728); assay type: functional
Chain of C-C chemokine receptor type 6 (P51684 whole entry): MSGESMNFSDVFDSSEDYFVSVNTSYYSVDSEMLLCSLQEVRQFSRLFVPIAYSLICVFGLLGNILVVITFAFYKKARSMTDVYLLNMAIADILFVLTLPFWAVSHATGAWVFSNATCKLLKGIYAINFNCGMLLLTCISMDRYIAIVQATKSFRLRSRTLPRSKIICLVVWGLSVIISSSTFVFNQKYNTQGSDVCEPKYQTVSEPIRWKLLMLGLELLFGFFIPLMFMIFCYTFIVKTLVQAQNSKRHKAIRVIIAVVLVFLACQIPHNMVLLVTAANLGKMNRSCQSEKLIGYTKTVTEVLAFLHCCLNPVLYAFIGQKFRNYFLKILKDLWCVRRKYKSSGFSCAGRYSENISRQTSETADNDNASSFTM

Beta-galactosidase = Beta-galactosidase (Escherichia coli, UniProt Q8VNN2); experiment: detection-enzyme interference by beta-gal modulators – biochemical, E. coli enzyme, set 3, artefact control for CCR6 antagonist project, dose response (AID 504712); assay type: functional
Chain of Beta-galactosidase (Q8VNN2 whole entry): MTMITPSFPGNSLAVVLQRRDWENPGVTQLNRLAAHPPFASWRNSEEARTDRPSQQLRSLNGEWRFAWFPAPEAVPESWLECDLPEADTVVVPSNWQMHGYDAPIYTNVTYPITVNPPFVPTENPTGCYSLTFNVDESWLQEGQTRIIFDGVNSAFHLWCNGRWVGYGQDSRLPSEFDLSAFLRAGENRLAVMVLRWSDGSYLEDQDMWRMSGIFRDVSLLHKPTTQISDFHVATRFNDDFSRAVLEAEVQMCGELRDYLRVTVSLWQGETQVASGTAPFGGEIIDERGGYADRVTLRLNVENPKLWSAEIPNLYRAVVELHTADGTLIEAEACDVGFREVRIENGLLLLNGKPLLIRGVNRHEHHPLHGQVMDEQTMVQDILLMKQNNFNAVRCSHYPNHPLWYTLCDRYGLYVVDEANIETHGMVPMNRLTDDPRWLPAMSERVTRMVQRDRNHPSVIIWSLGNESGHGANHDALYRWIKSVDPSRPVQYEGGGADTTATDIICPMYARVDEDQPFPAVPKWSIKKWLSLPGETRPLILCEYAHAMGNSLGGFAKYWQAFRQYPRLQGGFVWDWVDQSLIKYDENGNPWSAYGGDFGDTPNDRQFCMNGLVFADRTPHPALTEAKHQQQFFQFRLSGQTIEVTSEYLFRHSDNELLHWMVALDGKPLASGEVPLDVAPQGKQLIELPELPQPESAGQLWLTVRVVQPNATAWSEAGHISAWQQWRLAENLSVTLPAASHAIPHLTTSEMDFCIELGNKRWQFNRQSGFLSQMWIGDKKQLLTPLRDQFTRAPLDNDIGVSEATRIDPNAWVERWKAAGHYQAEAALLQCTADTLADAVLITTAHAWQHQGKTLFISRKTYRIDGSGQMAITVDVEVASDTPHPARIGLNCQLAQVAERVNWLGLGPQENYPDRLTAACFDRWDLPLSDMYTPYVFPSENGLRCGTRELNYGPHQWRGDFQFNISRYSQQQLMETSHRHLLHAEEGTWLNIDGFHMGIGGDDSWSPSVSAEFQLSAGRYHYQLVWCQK

[18] = target: T3, Rac GTPase-activating protein 1 (Homo sapiens, UniProt Q9H0H5); experiment: blockers of MgcRacGAP-driven Rac1 GTP hydrolysis – biochemical, ADP Hunter fluorescence, primary and confirmatory, confirmation (AID 624330); assay type: functional
T3 sequence (Q9H0H5 whole entry): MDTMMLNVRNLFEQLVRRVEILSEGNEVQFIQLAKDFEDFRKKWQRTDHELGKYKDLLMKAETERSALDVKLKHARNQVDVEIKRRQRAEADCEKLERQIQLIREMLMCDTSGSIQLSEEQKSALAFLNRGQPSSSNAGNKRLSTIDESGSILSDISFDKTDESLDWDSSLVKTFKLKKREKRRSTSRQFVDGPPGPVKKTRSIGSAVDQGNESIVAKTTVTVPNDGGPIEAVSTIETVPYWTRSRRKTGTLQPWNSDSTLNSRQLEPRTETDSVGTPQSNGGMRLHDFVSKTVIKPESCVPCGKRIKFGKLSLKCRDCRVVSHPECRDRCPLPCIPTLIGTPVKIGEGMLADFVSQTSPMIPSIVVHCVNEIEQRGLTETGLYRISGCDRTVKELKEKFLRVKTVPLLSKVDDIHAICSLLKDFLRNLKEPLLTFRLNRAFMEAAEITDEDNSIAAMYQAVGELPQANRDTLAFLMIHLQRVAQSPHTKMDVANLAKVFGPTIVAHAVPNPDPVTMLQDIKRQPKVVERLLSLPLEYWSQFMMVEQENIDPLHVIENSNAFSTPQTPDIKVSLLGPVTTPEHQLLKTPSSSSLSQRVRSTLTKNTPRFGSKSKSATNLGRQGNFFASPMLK

Fatty acid synthase [19] = target: T4, Fatty acid synthase (Homo sapiens, UniProt P49327); experiment: inhibition of human FAS-TE enzyme activity – biochemical, kinetic fluorescence intensity, dose response (AID 624326); assay type: functional;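 also: rate of fluorescence rise from hydrolysis of a fluorogenic O-methyl fluorescein ester substrate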
[20] = viability loss in HeLa cells – cytotoxicity control for MgcRacGAP inhibitor project, dose response (AID 624300); assay type: functional
Fatty acid synthase [21] = target: T4, Fatty acid synthase; experiment: inhibition of human FAS-TE enzyme activity – biochemical, endpoint fluorescence intensity, uHTS hits, dose response (AID 624327); assay type: functional;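 also: fluorescence from hydrolysis of an O-methyl fluorescein acyl ester substrate by the enzyme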
[22] = loss of viability in HepG2 cells – cell-based, CellTiter-Glo, cherry-picked, cytotoxicity control for Shn3 inhibitor project, dose response (AID 624134); assay type: functional
Genome polyprotein = Genome polyprotein (dengue virus type 2, UniProt P29990); experiment: flavivirus cap methylation enzyme inhibition – biochemical, confirmation dose response, primary screen (AID 588689); assay type: functional
Vero = experiment: viability of Vero cells under compound – cytotoxicity control for flavivirus capping enzyme inhibitors (AID 588742); assay type: functional; conditions: Chlorocebus sabaeus
[23] = non-specific 3'UTR reporter inhibition in Clone20-Shn3RL – cell-based, Renilla luciferase, cherry-picked, counter-screen for Shn3 inhibitor project, dose response (AID 624133); assay type: functional
[24] = reduction of Shn3 3'UTR-driven luciferase in osteoblasts – cell-based, Clone20 osteoblasts, firefly luciferase, cherry-picked, dose response (AID 624132); assay type: functional;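 also: firefly luciferase luminescence from reporter carrying the Shn3 3'UTR in osteoblasts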
[25] = target: Metabotropic glutamate receptor 4 (Rattus norvegicus, UniProt P31423); experiment: Modulation of the Metabotropic Glutamate Receptor mGluR4: Rat PAM Potency. [Related pubchem assays (depositor defined):AID2437, AID2807]; assay type: functional
[26] = target: T5, Voltage-gated N-type calcium channel alpha-1B subunit/Amyloid beta A4 precursor protein-binding family A member 1 (Homo sapiens, UniProt Q00975+Q02410); experiment: disruptors of Mint-PDZ/N-type channel peptide interaction – biochemical, HTRF, SAR follow-up (AID 2489); assay type: functional
T5 sequence (Q00975 whole entry): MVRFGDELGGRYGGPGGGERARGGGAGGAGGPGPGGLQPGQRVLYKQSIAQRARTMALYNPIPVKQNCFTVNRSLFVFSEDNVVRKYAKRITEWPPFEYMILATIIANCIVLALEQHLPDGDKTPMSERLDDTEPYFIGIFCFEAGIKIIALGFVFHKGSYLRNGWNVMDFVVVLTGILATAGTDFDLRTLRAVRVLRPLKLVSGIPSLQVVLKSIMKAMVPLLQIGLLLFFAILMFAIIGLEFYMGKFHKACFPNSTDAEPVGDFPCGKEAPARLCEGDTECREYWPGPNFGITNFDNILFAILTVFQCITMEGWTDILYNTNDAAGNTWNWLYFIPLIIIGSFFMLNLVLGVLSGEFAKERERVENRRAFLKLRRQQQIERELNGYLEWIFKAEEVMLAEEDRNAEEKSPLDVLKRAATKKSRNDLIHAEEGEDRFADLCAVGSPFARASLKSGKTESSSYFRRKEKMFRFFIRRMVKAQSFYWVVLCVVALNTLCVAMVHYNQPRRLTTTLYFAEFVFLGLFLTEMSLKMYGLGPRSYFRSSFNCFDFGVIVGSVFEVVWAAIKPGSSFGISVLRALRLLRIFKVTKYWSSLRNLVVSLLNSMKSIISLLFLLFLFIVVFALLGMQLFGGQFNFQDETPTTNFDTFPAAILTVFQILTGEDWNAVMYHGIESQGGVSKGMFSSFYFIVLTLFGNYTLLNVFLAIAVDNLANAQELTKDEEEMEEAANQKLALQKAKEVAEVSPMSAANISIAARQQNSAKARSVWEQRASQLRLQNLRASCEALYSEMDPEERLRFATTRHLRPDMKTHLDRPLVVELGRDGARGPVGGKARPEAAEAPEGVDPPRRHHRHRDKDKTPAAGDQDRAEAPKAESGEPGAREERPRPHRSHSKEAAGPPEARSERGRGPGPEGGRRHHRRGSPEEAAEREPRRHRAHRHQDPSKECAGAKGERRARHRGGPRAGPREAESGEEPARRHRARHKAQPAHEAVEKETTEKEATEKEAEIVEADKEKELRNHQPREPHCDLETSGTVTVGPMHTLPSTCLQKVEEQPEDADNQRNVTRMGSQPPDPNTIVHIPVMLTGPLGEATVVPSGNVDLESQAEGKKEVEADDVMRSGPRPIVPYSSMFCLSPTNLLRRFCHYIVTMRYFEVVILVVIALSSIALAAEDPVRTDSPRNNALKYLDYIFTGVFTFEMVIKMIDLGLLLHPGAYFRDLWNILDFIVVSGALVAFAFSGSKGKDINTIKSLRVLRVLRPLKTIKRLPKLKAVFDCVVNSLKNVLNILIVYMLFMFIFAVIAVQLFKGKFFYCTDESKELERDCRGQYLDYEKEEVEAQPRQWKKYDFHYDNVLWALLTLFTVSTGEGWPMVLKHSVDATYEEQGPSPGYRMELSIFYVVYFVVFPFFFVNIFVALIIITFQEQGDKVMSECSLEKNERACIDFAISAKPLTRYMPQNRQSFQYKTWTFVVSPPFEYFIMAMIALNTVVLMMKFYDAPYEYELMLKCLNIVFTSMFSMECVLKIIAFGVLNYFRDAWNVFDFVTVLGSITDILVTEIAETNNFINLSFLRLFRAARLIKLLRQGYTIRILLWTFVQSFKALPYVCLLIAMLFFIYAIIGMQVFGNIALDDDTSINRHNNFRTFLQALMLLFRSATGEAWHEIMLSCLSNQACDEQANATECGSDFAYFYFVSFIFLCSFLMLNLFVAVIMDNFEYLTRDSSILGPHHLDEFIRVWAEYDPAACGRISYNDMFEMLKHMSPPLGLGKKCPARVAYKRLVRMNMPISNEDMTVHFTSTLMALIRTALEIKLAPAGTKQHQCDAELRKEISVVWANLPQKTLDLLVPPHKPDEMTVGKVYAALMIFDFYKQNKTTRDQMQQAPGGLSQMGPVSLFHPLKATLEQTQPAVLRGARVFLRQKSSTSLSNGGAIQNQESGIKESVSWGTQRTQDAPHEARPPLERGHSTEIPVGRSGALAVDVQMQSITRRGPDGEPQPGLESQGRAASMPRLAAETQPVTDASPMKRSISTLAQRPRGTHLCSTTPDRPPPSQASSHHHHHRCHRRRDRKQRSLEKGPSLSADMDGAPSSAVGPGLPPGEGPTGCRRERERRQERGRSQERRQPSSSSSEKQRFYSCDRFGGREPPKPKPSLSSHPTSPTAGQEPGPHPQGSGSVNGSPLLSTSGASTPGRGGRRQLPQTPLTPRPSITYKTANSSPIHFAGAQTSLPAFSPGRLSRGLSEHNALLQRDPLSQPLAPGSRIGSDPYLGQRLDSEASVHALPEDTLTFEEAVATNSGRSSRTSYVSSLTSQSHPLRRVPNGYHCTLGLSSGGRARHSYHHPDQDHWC
T5 sequence (Q02410 whole entry): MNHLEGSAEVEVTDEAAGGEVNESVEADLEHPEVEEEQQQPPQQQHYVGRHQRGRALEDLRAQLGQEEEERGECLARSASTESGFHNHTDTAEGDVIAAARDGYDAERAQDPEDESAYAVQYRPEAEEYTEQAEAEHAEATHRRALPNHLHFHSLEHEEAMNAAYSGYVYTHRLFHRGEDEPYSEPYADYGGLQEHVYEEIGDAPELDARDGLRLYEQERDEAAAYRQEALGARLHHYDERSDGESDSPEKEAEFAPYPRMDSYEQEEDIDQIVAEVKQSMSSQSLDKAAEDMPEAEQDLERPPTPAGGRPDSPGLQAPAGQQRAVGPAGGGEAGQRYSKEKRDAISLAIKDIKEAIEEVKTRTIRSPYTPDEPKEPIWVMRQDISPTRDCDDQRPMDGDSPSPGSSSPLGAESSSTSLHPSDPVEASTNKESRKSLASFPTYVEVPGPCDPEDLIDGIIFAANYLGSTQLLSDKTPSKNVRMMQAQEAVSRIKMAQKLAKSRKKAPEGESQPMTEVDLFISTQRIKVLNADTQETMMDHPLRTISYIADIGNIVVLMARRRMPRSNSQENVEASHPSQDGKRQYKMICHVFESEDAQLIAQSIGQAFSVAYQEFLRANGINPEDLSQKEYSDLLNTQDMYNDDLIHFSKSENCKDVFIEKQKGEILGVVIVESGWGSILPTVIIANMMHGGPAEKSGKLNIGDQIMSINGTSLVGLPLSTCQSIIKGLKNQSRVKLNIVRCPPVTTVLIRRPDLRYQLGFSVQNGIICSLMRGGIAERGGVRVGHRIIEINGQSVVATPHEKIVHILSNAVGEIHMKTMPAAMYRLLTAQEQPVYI

[27] = target: T5, Voltage-gated N-type calcium channel alpha-1B subunit/Amyloid beta A4 precursor protein-binding family A member 1; experiment: disruptors of Mint-PDZ/N-type channel peptide interaction – biochemical, HTRF, set 2, SAR follow-up (AID 434980); assay type: functional
[28] = target: FAD-linked sulfhydryl oxidase ALR (Homo sapiens, UniProt P55789); experiment: ALR-catalysed DTT oxidation blockers – biochemical, H2O2 detection, luminescence, cherry-pick, dose response (AID 493248)
Chain of FAD-linked sulfhydryl oxidase ALR (P55789 whole entry): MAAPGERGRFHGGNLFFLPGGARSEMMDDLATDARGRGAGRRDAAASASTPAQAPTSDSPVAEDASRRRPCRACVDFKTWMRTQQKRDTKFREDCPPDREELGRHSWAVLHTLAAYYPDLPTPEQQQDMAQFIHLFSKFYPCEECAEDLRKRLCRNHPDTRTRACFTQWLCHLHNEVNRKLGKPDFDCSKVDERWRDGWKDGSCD

CCCc1nc(SCC(=O)N2CCC(Cc3ccccc3)CC2)c2c(=O)n(C)c(=O)n(C)c2n1
inactive: AC50 [3] > 52 µM | IC50 (HEK293 [7]) > 20 µM
active: AC50 [1] 18.6 µM | IC50 [2] 11.4 µM | AC50 [4] 17.9 µM | IC50 (HEK293 [5]) 19.3 µM | IC50 (Tumor necrosis factor) 11 µM | IC50 (HEK293 [6]) 8.67 µM | EC50 [8] 6.62 µM | EC50 (HEK293 [9]) 5.46 µM | IC50 (HEK293 [10]) 5.22 µM | EC50 [11] 33.6 µM | EC50 [12] 6.8 µM | EC50 [13] 33.7 µM | IC50 [14] 12.2 µM

Cc1ccc(NC(=O)COC(=O)CCc2c[nH]c(O)n2)cc1
> 55.7 µM (not active): EC50 [15] | EC50 [16]

COC(=O)c1c(NC(=O)C(=O)N2CCCCC2)sc2c1CC(C)(C)OC2
inactive: IC50 [2] > 20 µM | IC50 (HEK293 [5]) > 20 µM | IC50 (Tumor necrosis factor) > 20 µM | IC50 [14] > 20 µM

CC1(C)CC[C@]2(C(=O)n3ccnc3)CC[C@]3(C)[C@H](C(=O)C=C4[C@@]5(C)C=C(C#N)C(=O)C(C)(C)[C@@H]5CC[C@]43C)[C@@H]2C1
inactive: IC50 (Beta-galactosidase) > 66.6 µM
active: IC50 [17] 11.5 µM | IC50 [18] 20.7 µM | IC50 (Fatty acid synthase [19]) 1.77 µM | CC50 [20] 5.19 µM | IC50 (Fatty acid synthase [21]) 2.85 µM | AC50 [22] 5.13 µM | IC50 (Genome polyprotein) 38.2 µM | CC50 (Vero) < 0.63 µM | AC50 [23] 0.376 µM | AC50 [24] < 0.26 µM

O=C(Nc1ccc(N2C(=O)[C@@H]3[C@H](C2=O)[C@H]2C=C[C@@H]3CC2)c(Cl)c1)c1ccccn1
active: EC50 [25] 0.25 µM

O=C(c1cc(-c2ccco2)nc2ccccc12)N1CCCCC1Cc1ccccc1 (stereo not given)
inactive: IC50 [26] > 56.8 µM | IC50 [27] > 56.8 µM

CC(=O)c1ccc(N/N=C2/CCCNC2=O)cc1
active: AC50 [28] 3.67 µM
> 55.7 µM (not active): EC50 [15] | EC50 [16]

C=CCS/C(N)=N\N=C\c1cc(Br)cc([N+](=O)[O-])c1O
inactive: IC50 [17] > 66.6 µM | IC50 (Beta-galactosidase) > 66.6 µM
